These compounds were tested against cellular IDO1 in HeLa cells (Homo sapiens (Human), UniProt P14902) (assay: HeLa Cell-Based IDO1 Kyn (Kynurenine) Production Assay). Conditions: IFN-γ induced IDO1, 48 hours incubation, Kyn absorbance at 480 nm.
Protocol: HeLa Cell-Based IDO1 Kyn (Kynurenine) Production Assay:
The inhibitory activity of IDO1 inhibitors is determined by using a colorimetric reaction to measure Kyn generated from L-Trp (L-Tryptophon) oxidation by cellular IDO1 in HeLa cells after induction of IDO1 expression by IFN-γ.
Hela cells were obtained from the American Type Culture Collection and recovered in 10% FBS-containing phenol red-free DMEM medium. Cells were plated onto a 96-well plate (100 μl/well) at 8000 cells per well and kept at 37° C. in a humidified incubator supplied with 5% CO2. 4 hours later, Human recombinant IFN-γ (8901SC, CST) was added to cells (final concentration 100 ng/mL) to stimulate endogenous IDOL. Compounds at different concentrations diluted in dimethylsulfoxide (DMSO) were added simultaneously with IFN-γ and 0.4 mM L-Trp. Cells were kept at 37° C. in a humidified incubator supplied with 5% CO2. After 48 hours of incubation, 100 μl supernatant from each well was removed to a new plate. The protein in the medium was precipitated with the addition of 8 μl 6N trichloroacetic acid. The plate was incubated at 60° C. for 30 minutes and then centrifugation at 2500 rpm for 10 minutes to remove sediments. 80 μl supernatants were carefully removed to a new clean plate and added with an equal volume of 2% 4-(Dimethylamino)benzaldehyde (D2004, sigma) dissolved in glacial acetic acid. The absorbance at 480 nm wavelength derived from Kyn was measured using a PHERAstar FS plate reader (BMG LABTECH). The IC5C for each compound was derived from fitting the dose-response data to the four-parameter logistic model by using XLfit software (IDBS).

Sequence of cellular IDO1 in HeLa cells (P14902 whole entry): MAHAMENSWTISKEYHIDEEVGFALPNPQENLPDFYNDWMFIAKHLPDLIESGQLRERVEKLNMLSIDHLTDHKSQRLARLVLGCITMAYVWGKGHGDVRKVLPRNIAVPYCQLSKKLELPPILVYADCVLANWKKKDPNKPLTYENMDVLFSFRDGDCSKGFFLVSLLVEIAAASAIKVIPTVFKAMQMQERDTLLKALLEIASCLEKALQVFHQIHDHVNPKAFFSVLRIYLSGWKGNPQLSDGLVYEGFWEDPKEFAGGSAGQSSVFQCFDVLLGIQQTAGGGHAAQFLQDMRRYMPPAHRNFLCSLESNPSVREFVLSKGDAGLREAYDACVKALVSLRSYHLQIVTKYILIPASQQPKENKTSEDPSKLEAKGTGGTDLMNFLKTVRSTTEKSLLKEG

Row | EC50 [nM] | Structure (SMILES)
1 | 150 | Fc1ccc2nccc(C3CCN(Cc4nc5cc(Cl)ccc5[nH]4)CC3)c2c1 [Example A39, 4-(1-((5-chloro-1H-benzo[d]imidazol-2-yl)methyl)piperidin-4-yl)-6-fluoroquinoline]
2 | 59 | C[C@H](c1nc2cc(F)c(F)cc2[nH]1)[C@H]1CC[C@@H](c2ccnc3ccc(F)cc32)CC1 [Example B1b, 4-((1R,4s)-4-((S)-1-(5,6-difluoro-1H-benzo[d]imidazol-2-yl)ethyl)cyclohexyl)-6-fluoroquinoline]
3 | 0.95 | C[C@@H](c1nc2cc(Cl)c(F)cc2[nH]1)[C@H]1CC[C@@H](c2ccnc3ccc(F)cc32)CC1 [Example B2, 4-((1S,4s)-4-((R)-1-(5-chloro-6-fluoro-1H-benzo[d]imidazol-2-yl)ethyl)cyclohexyl)-6-fluoroquinoline]
4 | 0.38 | C[C@@H](c1nc2cc(Cl)c(F)cc2[nH]1)[C@H]1CC[C@@H](c2ccnc3ccc(F)cc32)CC1 [Example B2a, 4-((1R,4s)-4-((S)-1-(5-chloro-6-fluoro-1H-benzo[d]imidazol-2-yl)ethyl)cyclohexyl)-6-fluoroquinoline]
5 | 50 | C[C@H](c1nc2cc(Cl)c(F)cc2[nH]1)[C@H]1CC[C@@H](c2ccnc3ccc(F)cc32)CC1 [Example B2b, 4-((1S,4s)-4-((R)-1-(5-chloro-6-fluoro-1H-benzo[d]imidazol-2-yl)ethyl)cyclohexyl)-6-fluoroquinoline]
6 | 1.3 | COC(=O)c1ccc2[nH]c(C(C)C3CCC(c4ccnc5ccc(F)cc45)CC3)nc2c1 (stereo not drawn) [Example B3, methyl 2-(1-(4-(6-fluoroquinolin-4-yl)cyclohexyl)ethyl)-1H-benzo[d]imidazole-5-carboxylate]
7 | 1.4 | C[C@@H](c1nc2cc(C(F)(F)F)ccc2[nH]1)[C@H]1CC[C@@H](c2ccnc3ccc(F)cc32)CC1 [Example B4, 6-fluoro-4-((1S,4s)-4-((R)-1-(5-(trifluoromethyl)-1H-benzo[d]imidazol-2-yl)ethyl)cyclohexyl)quinoline]
8 | 1.4 | C[C@@H](c1nc2c(F)cc(F)c(F)c2[nH]1)[C@H]1CC[C@@H](c2ccnc3ccc(F)cc32)CC1 [Example B5, 6-fluoro-4-((1S,4s)-4-((R)-1-(4,6,7-trifluoro-1H-benzo[d]imidazol-2-yl)ethyl)cyclohexyl)quinoline]
9 | 6.9 | C[C@H](c1nc2ccc(C#N)cc2[nH]1)[C@H]1CC[C@@H](c2ccnc3ccc(F)cc32)CC1 [Example B8, 2-((S)-1-((1s,4R)-4-(6-fluoroquinolin-4-yl)cyclohexyl)ethyl)-1H-benzo[d]imidazole-6-carbonitrile]
10 | 46 | C[C@@H](c1nc2cc(C(=O)N(C)C)ccc2[nH]1)[C@H]1CC[C@@H](c2ccnc3ccc(F)cc32)CC1 [Example B12, 2-((R)-1-((1s,4S)-4-(6-fluoroquinolin-4-yl)cyclohexyl)ethyl)-N,N-dimethyl-1H-benzo[d]imidazole-5-carboxamide]
11 | 0.58 | CCOC(=O)c1ccc2[nH]c([C@H](C)[C@H]3CC[C@@H](c4ccnc5ccc(F)cc54)CC3)nc2c1 [Example B17, ethyl 2-((R)-1-((1s,4S)-4-(6-fluoroquinolin-4-yl)cyclohexyl)ethyl)-1H-benzo[d]imidazole-5-carboxylate]
12 | 5.1 | C[C@H](c1nc2ccc(Cl)cc2[nH]1)C1CCC(c2cnc3ccccc3c2)CC1 (stereo partly drawn) [Example B25a, (S)-3-(4-(1-(6-chloro-1H-benzo[d]imidazol-2-yl)ethyl)cyclohexyl)quinoline]
13 | 3.1 | C[C@@H](c1nc2ccc(Cl)cc2[nH]1)C1CCC(c2cnc3ccccc3c2)CC1 (stereo partly drawn) [Example B25b, (R)-3-(4-(1-(6-chloro-1H-benzo[d]imidazol-2-yl)ethyl)cyclohexyl)quinoline]
14 | 6.79 | C[C@@H](c1nc2c(Cl)c(F)cc(F)c2[nH]1)[C@H]1CC[C@@H](c2ccnc3ccc(F)cc32)CC1 [Example B123, 4-((1S,4s)-4-((R)-1-(4-chloro-5,7-difluoro-1H-benzo[d]imidazol-2-yl)ethyl)cyclohexyl)-6-fluoroquinoline]
15 | 16.4 | C[C@@H](c1nc2c(F)c(F)cc(Cl)c2[nH]1)[C@H]1CC[C@@H](c2ccnc3ccc(F)cc32)CC1 [Example B124, 4-((1S,4s)-4-((R)-1-(7-chloro-4,5-difluoro-1H-benzo[d]imidazol-2-yl)ethyl)cyclohexyl)-6-fluoroquinoline]
16 | 8.79 | C[C@@H](c1nc2c(Cl)c(F)c(F)cc2[nH]1)[C@H]1CC[C@@H](c2ccnc3ccc(F)cc32)CC1 [Example B125, 4-((1S,4s)-4-((R)-1-(4-chloro-5,6-difluoro-1H-benzo[d]imidazol-2-yl)ethyl)cyclohexyl)-6-fluoroquinoline]
17 | 296 | C[C@@H](c1nc2ccc(NS(C)(=O)=O)cc2[nH]1)[C@H]1CC[C@@H](c2ccnc3ccc(F)cc32)CC1 [Example B136, N-(2-((R)-1-((1s,4S)-4-(6-fluoroquinolin-4-yl)cyclohexyl)ethyl)-1H-benzo[d]imidazol-6-yl)methanesulfonamide]
18 | 18.8 | C[C@@H](c1nc2ccc(S(C)(=O)=O)cc2[nH]1)[C@H]1CC[C@@H](c2ccnc3ccc(F)cc32)CC1 [Example B138, 6-fluoro-4-((1S,4s)-4-((R)-1-(6-(methylsulfonyl)-1H-benzo[d]imidazol-2-yl)ethyl)cyclohexyl)quinoline]
19 | 6.89 | COC(=O)c1cc(C)c2nc([C@H](C)[C@H]3CC[C@@H](c4ccnc5ccc(F)cc54)CC3)[nH]c2c1 [Example B141, methyl 2-((R)-1-((1s,4S)-4-(6-fluoroquinolin-4-yl)cyclohexyl)ethyl)-4-methyl-1H-benzo[d]imidazole-6-carboxylate]
20 | 82.3 | CC(c1nc2cc3c(=O)[nH]cnc3cc2[nH]1)[C@H]1CC[C@@H](c2ccnc3ccc(F)cc32)CC1 (stereo partly drawn) [Example B151, 2-(1-((1s,4s)-4-(6-fluoroquinolin-4-yl)cyclohexyl)ethyl)-3,7-dihydro-8H-imidazo[4,5-g]quinazolin-8-one]
21 | 3.8 | C[C@@H](c1nc2cc(-c3ncccn3)ccc2[nH]1)[C@H]1CC[C@@H](c2ccnc3ccc(F)cc32)CC1 [Example B157, 6-fluoro-4-((1S,4s)-4-((R)-1-(5-(pyrimidin-2-yl)-1H-benzo[d]imidazol-2-yl)ethyl)cyclohexyl)quinoline]
22 | 67.7 | CC(c1nc2cc3c(cc2[nH]1)CCC(=O)N3)[C@H]1CC[C@@H](c2ccnc3ccc(F)cc32)CC1 (stereo partly drawn) [Example B159, 2-(1-((1s,4s)-4-(6-fluoroquinolin-4-yl)cyclohexyl)ethyl)-1,5,7,8-tetrahydro-6H-imidazo[4,5-g]quinolin-6-one]
23 | 46 | CC(c1nc2cc(C(=O)N(C)C)ccc2[nH]1)[C@H]1CC[C@@H](c2ccnc3ccc(F)cc32)CC1 (stereo partly drawn) [Example B160, 2-(1-((1s,4s)-4-(6-fluoroquinolin-4-yl)cyclohexyl)ethyl)-N,N-dimethyl-1H-benzo[d]imidazole-5-carboxamide]
24 | 567 | CC(c1nc2ccc(C(=O)O)cc2[nH]1)[C@H]1CC[C@@H](c2ccnc3ccc(F)cc32)CC1 (stereo partly drawn) [Example B163, 2-(1-((1s,4s)-4-(6-fluoroquinolin-4-yl)cyclohexyl)ethyl)-1H-benzo[d]imidazole-6-carboxylic acid]
25 | 5.8 | CC(c1nc2ccc(C(=O)NC3CCC3)cc2[nH]1)[C@H]1CC[C@@H](c2ccnc3ccc(F)cc32)CC1 (stereo partly drawn) [Example B164, N-cyclobutyl-2-(1-((1s,4s)-4-(6-fluoroquinolin-4-yl)cyclohexyl)ethyl)-1H-benzo[d]imidazole-6-carboxamide]
26 | 251 | CC(c1nc2cc3ccccc3cc2[nH]1)[C@H]1CC[C@@H](c2ccnc3ccc(F)cc32)CC1 (stereo partly drawn) [Example B166, 2-(1-((1s,4s)-4-(6-fluoroquinolin-4-yl)cyclohexyl)ethyl)-1H-naphtho[2,3-d]imidazole]
27 | 18.8 | CC(c1nc2ccc(S(C)(=O)=O)cc2[nH]1)[C@H]1CC[C@@H](c2ccnc3ccc(F)cc32)CC1 (stereo partly drawn) [Example B167, 6-fluoro-4-((1s,4s)-4-(1-(6-(methylsulfonyl)-1H-benzo[d]imidazol-2-yl)ethyl)cyclohexyl)quinoline]
28 | 19.6 | CC(c1nc2ccc(N)cc2[nH]1)[C@H]1CC[C@@H](c2ccnc3ccc(F)cc32)CC1 (stereo partly drawn) [Example B169, 2-(1-((1s,4s)-4-(6-fluoroquinolin-4-yl)cyclohexyl)ethyl)-1H-benzo[d]imidazol-6-amine]

Row | Structure (SMILES) | EC50 [nM]
29 | COC(=O)c1ccc2[nH]c([C@@H](C)[C@H]3CC[C@@H](c4ccnc5ccc(F)cc54)CC3)nc2c1 [Example B3a, methyl 2-((S)-1-((1s,4R)-4-(6-fluoroquinolin-4-yl)cyclohexyl)ethyl)-1H-benzo[d]imidazole-5-carboxylate] | 0.55
30 | COC(=O)c1ccc2[nH]c([C@H](C)[C@H]3CC[C@@H](c4ccnc5ccc(F)cc54)CC3)nc2c1 [Example B3b, methyl 2-((R)-1-((1s,4S)-4-(6-fluoroquinolin-4-yl)cyclohexyl)ethyl)-1H-benzo[d]imidazole-5-carboxylate] | 81
